Measured values: ChEMBL document CHEMBL3868610, “Novel bicyclo[3.1.0]hexane analogs as antagonists of metabotropic glutamate 2/3 receptors for the treatment of depression” (Bioorg Med Chem Lett, 2016)
pIC50, pKi: −log10 of the molar value. The source made the active and inactive calls. The rule behind the calls is not given here.

What was measured:
[1] = biological target: T1, Metabotropic glutamate receptor 3 (Homo sapiens, UniProt Q14832); test: Antagonist activity at recombinant human mGlu3 receptor expressed in hamster AV12 cells assessed as inhibition of DCG-4-inhibited forskolin-stimulated cAMP formation up to 25 uM after 20 mins by HTRF assay relative to control; format: functional, cell-based
Target sequence in this assay (Q14832 23-879 limits assumed): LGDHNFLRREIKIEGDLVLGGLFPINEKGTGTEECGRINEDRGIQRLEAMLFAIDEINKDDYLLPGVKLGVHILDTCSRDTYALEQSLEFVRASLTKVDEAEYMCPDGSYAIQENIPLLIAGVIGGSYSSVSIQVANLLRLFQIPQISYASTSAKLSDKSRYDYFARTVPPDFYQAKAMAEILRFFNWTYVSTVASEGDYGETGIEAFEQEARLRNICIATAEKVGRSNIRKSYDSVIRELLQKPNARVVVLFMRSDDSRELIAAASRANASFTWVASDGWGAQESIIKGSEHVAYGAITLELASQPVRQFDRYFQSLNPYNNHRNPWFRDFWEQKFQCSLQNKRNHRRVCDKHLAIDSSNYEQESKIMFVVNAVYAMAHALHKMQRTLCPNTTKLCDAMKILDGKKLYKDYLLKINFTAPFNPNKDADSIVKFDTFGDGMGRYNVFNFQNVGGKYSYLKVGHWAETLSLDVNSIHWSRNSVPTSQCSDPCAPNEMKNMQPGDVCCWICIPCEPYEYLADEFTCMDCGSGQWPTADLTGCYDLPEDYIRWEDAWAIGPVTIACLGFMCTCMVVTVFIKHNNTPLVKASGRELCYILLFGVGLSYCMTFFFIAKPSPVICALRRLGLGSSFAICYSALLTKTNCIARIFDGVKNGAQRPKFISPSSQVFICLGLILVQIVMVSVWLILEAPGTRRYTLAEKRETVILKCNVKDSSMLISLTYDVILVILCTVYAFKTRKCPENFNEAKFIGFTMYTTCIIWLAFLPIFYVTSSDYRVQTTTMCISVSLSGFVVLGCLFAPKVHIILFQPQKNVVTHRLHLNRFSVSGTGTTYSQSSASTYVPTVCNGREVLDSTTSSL

[2] = Antidepressant activity in ip dosed NIH Swiss Webster mouse assessed as reduction in immobility time administered 30 mins prior to evaluation measured on the last 4 mins of the 6 mins observation time by forced swim test realtive to control; format: functional, organism-based
[3] = Antidepressant activity in ip dosed NIH Swiss Webster mouse assessed as reduction in immobility time administered 30 mins prior to evaluation measured on the last 4 mins of the 6 mins observation time by forced swim test; format: functional, organism-based
[4] = biological target: T1, Metabotropic glutamate receptor 3; test: Antagonist activity at recombinant human mGlu3 receptor expressed in hamster AV12 cells co-expressing human EAAT1 assessed as reduction of DCG-4-inhibited forskolin-stimulated cAMP formation after 20 mins by HTRF assay; format: functional, cell-based
[5] = biological target: T2, Metabotropic glutamate receptor 2 (Homo sapiens, UniProt Q14416); test: Antagonist activity at recombinant human mGlu2 receptor expressed in hamster AV12 cells assessed as inhibition of DCG-4-inhibited forskolin-stimulated cAMP formation up to 25 uM after 20 min by HTRF assay relative to control; format: functional, cell-based
Target sequence in this assay (Q14416 19-872 limits assumed): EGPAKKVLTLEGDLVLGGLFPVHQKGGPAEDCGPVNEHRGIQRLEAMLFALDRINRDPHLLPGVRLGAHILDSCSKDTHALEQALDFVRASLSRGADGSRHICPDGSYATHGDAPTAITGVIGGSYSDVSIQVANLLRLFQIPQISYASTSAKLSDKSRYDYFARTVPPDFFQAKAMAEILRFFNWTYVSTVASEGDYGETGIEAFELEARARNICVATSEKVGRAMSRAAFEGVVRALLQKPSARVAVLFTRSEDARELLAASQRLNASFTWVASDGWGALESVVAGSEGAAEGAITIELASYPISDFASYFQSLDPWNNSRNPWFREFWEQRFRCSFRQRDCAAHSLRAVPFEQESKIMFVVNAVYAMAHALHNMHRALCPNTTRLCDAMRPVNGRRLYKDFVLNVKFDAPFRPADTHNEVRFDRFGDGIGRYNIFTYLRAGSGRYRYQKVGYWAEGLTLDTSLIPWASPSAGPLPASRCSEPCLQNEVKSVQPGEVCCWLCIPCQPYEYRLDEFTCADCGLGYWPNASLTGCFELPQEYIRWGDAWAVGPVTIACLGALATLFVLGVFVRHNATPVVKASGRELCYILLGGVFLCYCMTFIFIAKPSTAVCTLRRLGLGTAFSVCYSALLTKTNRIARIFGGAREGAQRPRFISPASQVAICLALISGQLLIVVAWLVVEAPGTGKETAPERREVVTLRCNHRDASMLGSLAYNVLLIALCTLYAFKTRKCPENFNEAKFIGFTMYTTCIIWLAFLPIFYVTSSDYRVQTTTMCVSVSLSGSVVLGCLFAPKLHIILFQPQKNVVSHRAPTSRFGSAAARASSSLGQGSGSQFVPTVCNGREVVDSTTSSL

[6] = biological target: T2, Metabotropic glutamate receptor 2; test: Antagonist activity at recombinant human mGlu2 receptor expressed in hamster AV12 cells co-expressing human EAAT1 assessed as reduction of DCG-4-inhibited forskolin-stimulated cAMP formation after 20 mins by HTRF assay; format: functional, cell-based
[7] = biological target: T2, Metabotropic glutamate receptor 2; test: Displacement of [3H]-LY459477 from human mGlu2 receptor expressed in hamster AV12 cell membranes co-expressing human EAAT1 after 90 mins by liquid scintillation counting method
Target sequence in this assay (Q14416 whole entry): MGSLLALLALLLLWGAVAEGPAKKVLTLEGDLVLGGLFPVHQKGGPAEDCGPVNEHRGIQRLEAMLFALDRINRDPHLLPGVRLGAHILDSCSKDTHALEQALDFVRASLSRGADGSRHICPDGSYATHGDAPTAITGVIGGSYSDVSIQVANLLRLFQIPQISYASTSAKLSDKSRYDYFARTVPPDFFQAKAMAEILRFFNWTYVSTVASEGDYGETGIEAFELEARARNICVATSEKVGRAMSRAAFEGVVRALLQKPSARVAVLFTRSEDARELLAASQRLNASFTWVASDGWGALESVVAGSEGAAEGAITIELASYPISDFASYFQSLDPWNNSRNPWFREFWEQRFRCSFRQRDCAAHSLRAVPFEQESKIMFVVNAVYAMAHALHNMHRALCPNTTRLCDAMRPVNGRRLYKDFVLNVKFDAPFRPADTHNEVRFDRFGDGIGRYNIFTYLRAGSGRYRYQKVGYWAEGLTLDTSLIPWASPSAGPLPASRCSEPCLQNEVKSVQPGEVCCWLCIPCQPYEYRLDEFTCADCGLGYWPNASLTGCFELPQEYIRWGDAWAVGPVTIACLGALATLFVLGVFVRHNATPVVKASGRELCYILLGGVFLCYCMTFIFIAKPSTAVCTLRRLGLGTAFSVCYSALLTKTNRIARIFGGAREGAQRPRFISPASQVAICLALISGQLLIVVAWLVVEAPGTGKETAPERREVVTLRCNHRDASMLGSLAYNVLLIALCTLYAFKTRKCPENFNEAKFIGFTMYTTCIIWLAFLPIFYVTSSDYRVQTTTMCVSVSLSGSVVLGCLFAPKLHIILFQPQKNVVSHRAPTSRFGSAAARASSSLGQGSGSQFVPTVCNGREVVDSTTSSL

[8] = biological target: T1, Metabotropic glutamate receptor 3; test: Displacement of [3H]-LY459477 from human mGlu3 receptor expressed in hamster AV12 cell membranes co-expressing human EAAT1 after 90 mins by liquid scintillation counting method
Target sequence in this assay (Q14832 whole entry): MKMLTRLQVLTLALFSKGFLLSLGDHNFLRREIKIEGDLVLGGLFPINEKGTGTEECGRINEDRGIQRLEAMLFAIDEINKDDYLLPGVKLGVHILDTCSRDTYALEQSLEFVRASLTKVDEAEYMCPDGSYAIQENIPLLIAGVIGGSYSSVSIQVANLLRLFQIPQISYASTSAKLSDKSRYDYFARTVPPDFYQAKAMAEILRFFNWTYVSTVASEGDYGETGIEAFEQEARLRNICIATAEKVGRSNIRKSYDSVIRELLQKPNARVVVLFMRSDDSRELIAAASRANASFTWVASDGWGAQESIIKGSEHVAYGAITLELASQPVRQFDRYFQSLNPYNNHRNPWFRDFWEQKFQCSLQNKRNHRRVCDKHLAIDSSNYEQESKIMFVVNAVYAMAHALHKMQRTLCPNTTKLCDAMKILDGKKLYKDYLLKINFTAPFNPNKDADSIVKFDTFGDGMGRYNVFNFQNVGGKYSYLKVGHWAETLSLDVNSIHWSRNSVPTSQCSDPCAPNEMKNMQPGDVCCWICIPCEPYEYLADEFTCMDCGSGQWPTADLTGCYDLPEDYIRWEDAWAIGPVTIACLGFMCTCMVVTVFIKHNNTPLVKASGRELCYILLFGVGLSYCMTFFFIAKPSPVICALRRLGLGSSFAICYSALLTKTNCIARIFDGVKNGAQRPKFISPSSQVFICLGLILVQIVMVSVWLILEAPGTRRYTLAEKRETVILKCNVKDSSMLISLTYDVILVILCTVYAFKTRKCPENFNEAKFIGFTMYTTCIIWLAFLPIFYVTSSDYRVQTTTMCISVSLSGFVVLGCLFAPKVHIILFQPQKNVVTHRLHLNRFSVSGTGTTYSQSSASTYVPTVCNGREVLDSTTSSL

Structure (SMILES) | inhibition [1] | pIC50 [4] | Imax [4] [%] | inhibition [5] | pIC50 [6] | Imax [6] [%] | pKi [7] | pKi [8] | Emax [2] [%] | ED60 [3] [mg/kg] | MED [3] [mg/kg]
N[C@]1(C(=O)O)[C@@H]2[C@@H](C(=O)O)[C@@H]2[C@H](Sc2nc[nH]n2)[C@H]1OCc1ccc(Cl)c(Cl)c1 | Active | 7.63 | > 94 | Active | 7.90 | > 94 | 8.13 | 8.57 | 62 | 2.08 | 3
N[C@]1(C(=O)O)[C@@H]2[C@@H](C(=O)O)[C@@H]2[C@@H](O)[C@H]1OCc1cc(Cl)ccc1Cl | Active | 6.73 | > 94 |  |  |  |  |  |  |  | 
N[C@]1(C(=O)O)[C@@H]2[C@@H](C(=O)O)[C@@H]2[C@@H](O)[C@H]1OCc1ccc(Cl)c(F)c1 | Active | 6.90 | > 94 |  |  |  |  |  |  |  | 
N[C@]1(C(=O)O)[C@@H]2[C@@H](C(=O)O)[C@@H]2[C@@H](O)[C@H]1OCc1cccc(Cl)c1 | Active | 6.75 | > 94 | Active | 6.55 | > 94 |  |  |  |  | 
N[C@H]1[C@H]2[C@H](C(=O)O)[C@H]2[C@](N)(C(=O)O)[C@@H]1OCc1ccc(Cl)c(Cl)c1 | Active | 5.97 | > 94 | Active | 5.95 | > 94 |  |  |  |  | 
N[C@]1(C(=O)O)[C@@H]2[C@@H](C(=O)O)[C@@H]2[C@@H](O)[C@H]1OCc1cccc(Cl)c1Cl | Active | 7.08 | > 94 |  |  |  |  |  |  |  | 
N[C@]1(C(=O)O)[C@@H]2[C@@H](C(=O)O)[C@@H]2[C@@H](O)[C@H]1OCc1ccccc1 | Active | 6.62 | > 94 |  |  |  |  |  |  |  | 
CC(=O)N[C@H]1[C@H]2[C@H](C(=O)O)[C@H]2[C@](N)(C(=O)O)[C@@H]1OCc1ccc(Cl)c(Cl)c1 | Active | 7.84 | > 94 | Active | 7.58 | > 94 |  |  | 41 | 9.1 | 30
[N-]=[N+]=N[C@H]1[C@H]2[C@H](C(=O)O)[C@H]2[C@](N)(C(=O)O)[C@@H]1OCc1ccc(Cl)c(Cl)c1 | Active | 7.27 | > 94 | Active | 7.46 | > 94 |  |  |  |  | 
N[C@]1(C(=O)O)[C@@H]2[C@@H](C(=O)O)[C@@H]2[C@H](F)[C@H]1OCc1ccc(Cl)c(Cl)c1 | Active | 7.15 | > 94 |  |  |  |  |  |  |  | 
COC(=O)N[C@H]1[C@H]2[C@H](C(=O)O)[C@H]2[C@](N)(C(=O)O)[C@@H]1OCc1ccc(Cl)c(Cl)c1 | Active | 7.69 | > 94 | Active | 7.73 | > 94 |  |  | 46 | 7.95 | 10

Second part, led by results:

inhibition [1] | pIC50 [4] | Imax [4] [%] | inhibition [5] | pIC50 [6] | Imax [6] [%] | pKi [7] | pKi [8] | Structure (SMILES) | Emax [2] [%] | ED60 [3] [mg/kg] | MED [3] [mg/kg]
Active | 7.41 | > 94 |  |  |  |  |  | N[C@]1(C(=O)O)[C@@H]2[C@@H](C(=O)O)[C@@H]2[C@H](Sc2ncc[nH]2)[C@H]1OCc1ccc(Cl)c(Cl)c1 | 41 | 9.1 | 10
Active | 6.84 | > 94 | Active | 6.68 | > 94 |  |  | N[C@]1(C(=O)O)[C@@H]2[C@@H](C(=O)O)[C@@H]2[C@@H](O)[C@H]1OCc1ccc(Cl)cc1 |  |  | 
 |  |  |  |  |  | 6.64 |  | N[C@@]1(C(=O)O)C[C@H](O)[C@H]2[C@H](C(=O)O)[C@H]21 |  |  | 
 |  |  |  |  |  | 6.78 |  | N[C@@]1(C(=O)O)C[C@@H](O)[C@H]2[C@H](C(=O)O)[C@H]21 |  |  | 
Active | 7.53 | > 94 | Active | 7.70 | > 94 |  |  | Cn1ncnc1S[C@H]1[C@H]2[C@H](C(=O)O)[C@H]2[C@](N)(C(=O)O)[C@@H]1OCc1ccc(Cl)c(Cl)c1 | 47 | 7.3 | 10
Active | 6.82 | > 94 | Active | 6.77 | > 94 | 7.12 |  | N[C@]1(C(=O)O)[C@@H]2[C@@H](C(=O)O)[C@@H]2[C@@H](O)[C@H]1OCc1ccc(Cl)c(Cl)c1 |  |  | 
 | 7.12 |  |  |  |  |  |  | N[C@@]1(C(=O)O)[C@H](Cc2ccc(F)c(Cl)c2)C[C@H]2[C@H](C(=O)O)[C@H]21 (racemic) |  |  | 
Active | 7.07 | > 94 |  |  |  |  |  | Cc1cc(CO[C@@H]2[C@H](O)[C@H]3[C@H](C(=O)O)[C@H]3[C@]2(N)C(=O)O)ccc1F |  |  | 
